Test results: patent US12162820B2 (TAIWANJ PHARMACEUTICALS CO., LTD., priority 2019, dated 2024)

Experiments:
Type in all cases: biochemical
[1] = target: T1, HDAC2 (Homo sapiens, UniProt Q92769); assay: HDAC Inhibition Screening Assay (FLUOR DE LYS Fluorimetric Drug Discovery Kit), HDAC2; conditions: for inhibition at 2 µM: 2 μM compound; for inhibition at 10 µM: 10 μM compound; for inhibition at 50 µM: 50 μM compound
T1 construct: purchased Enzo Life Sciences
Summary of the method: (§1)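 Two-step fluorimetric kit: enzyme deacetylates acetylated-lysine substrate; developer then releases fluorophore. Test cpds 2, 10, 50 μM. Ex 360/485 nm, Em 460/530 nm. Activity = % of basal control minus baseline control.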

[2] = target: T2, HDAC3 (Homo sapiens, UniProt O15379); assay: HDAC Inhibition Screening Assay (FLUOR DE LYS Fluorimetric Drug Discovery Kit), HDAC3; conditions: for inhibition at 2 µM: 2 μM compound; for inhibition at 10 µM: 10 μM compound; for inhibition at 50 µM: 50 μM compound
T2 construct: purchased Enzo Life Sciences
Summary of the method: as §1

[3] = target: T3, ATX (autotaxin) (Homo sapiens, UniProt Q13822); assay: Autotaxin Inhibition Screening Assay (choline release from LPC, LPC-CR); conditions: for inhibition at 4 µM: 4 μM compound; for inhibition at 20 µM: 20 μM compound; for inhibition at 50 µM: 50 μM compound
T3 construct: purchased Cayman 10803
Summary of the method: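 20 ng ATX incubated with 100 μM 14:0 LPC in 50 mM Tris pH 8.0, 0.01% Triton X-100, 50 mM CaCl2, with choline oxidase/HRP/2 mM HVA coupling; compounds at 4, 20 and 50 μM. HVA fluorescence (ex/em 320/450 nm) read every 60 s for 90 min; inhibition % from slopes corrected for blank versus vehicle.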

[4] = target: T4, HDAC1 (Homo sapiens, UniProt Q13547); assay: HDAC Inhibition Screening Assay (FLUOR DE LYS Fluorimetric Drug Discovery Kit), HDAC1; conditions: for inhibition at 2 µM: 2 μM compound; for inhibition at 10 µM: 10 μM compound; for inhibition at 50 µM: 50 μM compound
T4 construct: purchased Enzo Life Sciences
Summary of the method: as §1

T4 sequence (Q13547 whole entry): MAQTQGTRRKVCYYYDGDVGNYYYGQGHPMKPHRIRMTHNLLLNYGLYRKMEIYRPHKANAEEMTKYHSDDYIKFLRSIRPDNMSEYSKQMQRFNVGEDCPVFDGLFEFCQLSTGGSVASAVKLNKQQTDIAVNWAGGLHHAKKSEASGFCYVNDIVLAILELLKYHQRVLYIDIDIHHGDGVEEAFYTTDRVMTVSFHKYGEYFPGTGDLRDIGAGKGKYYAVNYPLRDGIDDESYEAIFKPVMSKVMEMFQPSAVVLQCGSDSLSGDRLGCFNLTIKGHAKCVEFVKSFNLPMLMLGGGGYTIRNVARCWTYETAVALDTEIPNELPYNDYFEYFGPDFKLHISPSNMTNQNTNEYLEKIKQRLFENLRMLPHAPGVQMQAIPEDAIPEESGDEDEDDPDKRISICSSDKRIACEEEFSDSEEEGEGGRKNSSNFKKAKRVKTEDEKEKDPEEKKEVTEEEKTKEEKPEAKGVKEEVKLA
T2 sequence (O15379 whole entry): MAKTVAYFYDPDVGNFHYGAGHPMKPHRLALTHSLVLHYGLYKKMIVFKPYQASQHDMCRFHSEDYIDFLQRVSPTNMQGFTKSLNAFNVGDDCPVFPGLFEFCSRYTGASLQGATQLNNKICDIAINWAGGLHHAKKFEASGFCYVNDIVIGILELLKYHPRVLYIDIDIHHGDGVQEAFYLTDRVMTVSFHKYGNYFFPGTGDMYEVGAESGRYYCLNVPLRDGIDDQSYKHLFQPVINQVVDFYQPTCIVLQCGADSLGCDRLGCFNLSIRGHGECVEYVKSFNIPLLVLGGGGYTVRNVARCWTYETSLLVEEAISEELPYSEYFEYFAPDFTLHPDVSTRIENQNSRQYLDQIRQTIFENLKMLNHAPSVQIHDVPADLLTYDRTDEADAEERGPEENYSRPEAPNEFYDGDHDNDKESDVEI
T2 sequence (O75376 395-489 partner limits assumed): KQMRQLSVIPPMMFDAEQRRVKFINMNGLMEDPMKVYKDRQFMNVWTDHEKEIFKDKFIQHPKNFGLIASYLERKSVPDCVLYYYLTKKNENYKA
T1 sequence (Q92769 whole entry): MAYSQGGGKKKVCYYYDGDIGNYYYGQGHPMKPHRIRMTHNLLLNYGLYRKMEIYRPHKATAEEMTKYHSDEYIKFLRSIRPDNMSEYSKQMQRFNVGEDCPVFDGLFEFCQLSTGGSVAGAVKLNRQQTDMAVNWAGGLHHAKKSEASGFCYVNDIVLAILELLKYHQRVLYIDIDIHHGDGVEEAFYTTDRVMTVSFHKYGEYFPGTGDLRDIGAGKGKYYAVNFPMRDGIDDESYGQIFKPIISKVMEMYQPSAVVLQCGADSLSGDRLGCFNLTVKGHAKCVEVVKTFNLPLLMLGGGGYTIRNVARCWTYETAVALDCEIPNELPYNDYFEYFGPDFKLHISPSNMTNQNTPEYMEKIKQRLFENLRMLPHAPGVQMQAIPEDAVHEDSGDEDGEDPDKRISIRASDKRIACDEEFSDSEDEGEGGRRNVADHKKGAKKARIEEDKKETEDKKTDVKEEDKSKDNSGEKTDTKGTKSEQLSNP

Row | Compound | inhibition at 2 µM [1] [%] | inhibition at 10 µM [1] [%] | inhibition at 50 µM [1] [%] | inhibition at 2 µM [2] [%] | inhibition at 10 µM [2] [%] | inhibition at 50 µM [2] [%] | inhibition at 4 µM [3] [%] | inhibition at 20 µM [3] [%] | inhibition at 50 µM [3] [%] | inhibition at 2 µM [4] [%] | inhibition at 10 µM [4] [%] | inhibition at 50 µM [4] [%]
1 | O=C(CCCCCCC(=O)NC1CCCc2cc(Br)ccc21)NO (stereo not drawn) [Compound 46, N1-(6-bromo-1,2,3,4-tetrahydronaphthalen-1-yl)-N8-hydroxyoctanediamide] | < 50 | 50 to 80 | > 80 | < 50 | < 50 | 50 to 80 | < 50 | < 50 | < 50 | < 50 | 50 to 80 | 50 to 80
2 | Nc1cc(F)ccc1NC(=O)CCCCNC(=O)c1ccc2c(c1)CC/C(=C\c1cc(C(F)(F)F)cc(C(F)(F)F)c1)C2=O [Compound 80] | < 50 | < 50 | < 50 | < 50 | < 50 | < 50 | < 50 | < 50 | 50 to 80 | < 50 | < 50 | < 50
3 | O=C(/C=C/c1ccc(COc2ccc3c(c2)CC/C(=C\c2cc(C(F)(F)F)cc(C(F)(F)F)c2)C3=O)cc1)NO [Compound 72, (E)-3-(4-(((6-((E)-3,5-bis(trifluoromethyl)benzylidene)-5-oxo-5,6,7,8-tetrahydronaphthalen-2-yl)oxy)methyl)phenyl)-N-hydroxyacrylamide] | < 50 | < 50 | 50 to 80 | < 50 | < 50 | 50 to 80 | 50 to 80 | 50 to 80 | 50 to 80 | < 50 | < 50 | 50 to 80
4 | Nc1cc(F)ccc1NC(=O)c1ccc(COc2ccc3c(c2)CC(Cc2cc(C(F)(F)F)cc(C(F)(F)F)c2)C3=O)cc1 (stereo not drawn) [Compound 76, N-(2-amino-4-fluorophenyl)-4-(((2-(3,5-bis(trifluoromethyl)benzyl)-1-oxo-2,3-dihydro-1H-inden-5-yl)oxy)methyl)benzamide] | < 50 | < 50 | < 50 | < 50 | < 50 | < 50 | < 50 | < 50 | < 50 | < 50 | < 50 | < 50
5 | O=C(CCCCCCC(=O)Nc1ccc2c(c1)CCC(Cc1cc(C(F)(F)F)cc(C(F)(F)F)c1)C2=O)NO (stereo not drawn) [Compound 10, N1-(6-(3,5-bis(trifluoromethyl)benzyl)-5-oxo-5,6,7,8-tetrahydronaphthalen-2-yl)-N8-hydroxyoctanediamide] | < 50 | > 80 | > 80 | < 50 | 50 to 80 | > 80 | > 80 | > 80 | > 80 | < 50 | 50 to 80 | > 80
6 | O=C(CCCCC(=O)Nc1ccc2c(c1)CC/C(=C\c1cc(C(F)(F)F)cc(C(F)(F)F)c1)C2=O)NO [Compound 14, (E)-N1-(6-(3,5-bis(trifluoromethyl)benzylidene)-5-oxo-5,6,7,8-tetrahydronaphthalen-2-yl)-N6-hydroxyadipamide] | < 50 | 50 to 80 | > 80 | < 50 | < 50 | > 80 | > 80 | > 80 | > 80 | < 50 | 50 to 80 | > 80
7 | O=C(NO)c1ccc(COc2ccc3c(c2)CC(Cc2cc(C(F)(F)F)cc(C(F)(F)F)c2)C3=O)cc1 (stereo not drawn) [Compound 77, 4-(((2-(3,5-bis(trifluoromethyl)benzyl)-1-oxo-2,3-dihydro-1H-inden-5-yl)oxy)methyl)-N-hydroxybenzamide] | < 50 | 50 to 80 | 50 to 80 | < 50 | < 50 | 50 to 80 | > 80 | > 80 | > 80 | < 50 | < 50 | 50 to 80
8 | COc1ccc2c(c1)CCC2NC(=O)CCCCCCC(=O)Nc1ccc(F)cc1N (stereo not drawn) [Compound 43, N1-(2-amino-4-fluorophenyl)-N8-(5-methoxy-2,3-dihydro-1H-inden-1-yl)octanediamide] | < 50 | < 50 | 50 to 80 | < 50 | 50 to 80 | 50 to 80 | < 50 | < 50 | < 50 | < 50 | < 50 | < 50
9 | O=C(/C=C/c1ccc2c(c1)CCC2NCCc1ccc(F)cc1)NO (stereo not drawn) [Compound 53] | > 80 | > 80 | > 80 | > 80 | > 80 | > 80 | < 50 | < 50 | < 50 | > 80 | > 80 | > 80
10 | Nc1cc(F)ccc1NC(=O)/C=C/c1ccc2c(c1)CCCC2OCc1cc(C(F)(F)F)cc(C(F)(F)F)c1 (stereo not drawn) [Compound 35, (E)-N-(2-amino-4-fluorophenyl)-3-(5-((3,5-bis(trifluoromethyl)benzyl)oxy)-5,6,7,8-tetrahydronaphthalen-2-yl)acrylamide] | < 50 | < 50 | < 50 | < 50 | < 50 | 50 to 80 | < 50 | < 50 | < 50 | < 50 | < 50 | < 50
11 | CCN(CC)c1ccc(C(=O)NC2CCc3cc(/C=C/C(=O)NCCCCCC(=O)Nc4ccc(F)cc4N)ccc32)cc1 (stereo not drawn) [Compound 29, (E)-N-(5-(3-((6-((2-amino-4-fluorophenyl)amino)-6-oxohexyl)amino)-3-oxoprop-1-en-1-yl)-2,3-dihydro-1H-inden-1-yl)-4-(diethylamino)benzamide] | < 50 | < 50 | 50 to 80 | < 50 | < 50 | < 50 | < 50 | < 50 | < 50 | < 50 | < 50 | < 50
12 | O=C(/C=C/c1ccc(CNC(=O)COc2ccc3c(c2)CC/C(=C\c2cc(C(F)(F)F)cc(C(F)(F)F)c2)C3=O)cc1)NO [Compound 75] | < 50 | < 50 | 50 to 80 | < 50 | < 50 | 50 to 80 | 50 to 80 | 50 to 80 | 50 to 80 | < 50 | < 50 | 50 to 80
